Experimental data: patent publication US5100879A, “Method of topically cleansing the human body” (K.K. Ueno Seiyaku Oyo Kenkyujo, priority 1987, dated 1992)
Where two headings read alike, the source gives them in different places.

How the values were obtained:
HTLV-III = assay: Anti-AIDS activity, infected cell rate of MT-4 cells infected with HTLV-III at the 6th day (Example 9); type: cell-based; settings: for anti-AIDS virus activity, in words: Example 9
Description: To MT-4 cells (30×10^4 /ml) cultured in RPMI-1640 medium containing 10% bovine serum, was inoculated HTLV-III, and the suspension was incubated at 37° C. for 1 hour to cause the adsorption of the virus. The cell:virus ratio was 500:1. The cells were then washed, and cultured with or without various doses of the test substances (same as those of Example 1) at 37° C. under 5% CO2 for 3 days, after which cell growth, viability, and percentage of infected cells were recorded. The infected cells were distinguished from the uninfected cells by an indirect immuno-fluorescence method. Thus, the cultured cells were fixed with cold methanol on a slide glass, reacted with antibody to the HTLV-III-specific antigens, and further with the secondary antibody (having a fluororescent label). The results are shown in FIGS. 9-29, wherein, .gradient., .increment. and .quadrature. show the controls without virus, and show the infection experiments with HTLV-III. The cell growth is indicated in number of cells, the viability (%) in number of viable cells ×100/number of total cells, and the infected cell rate (%) in number of fluorescent-positive cells x 100/number of total cells.
In order to examine the correlation between the anti-AIDS virus activity and the molecular structure (especially, molecular weight and S-content or number of sulfate group in this case) of various test substances including those used in Examples 1-7, the anti-AIDS activities were evaluated for the various naturally occurring polysaccharides, polysaccharides having a sulfate group, mucopolysaccharides, mucopolysaccharide sulfate, and mucopolysaccharide polysulfate. Further, similar experiments were carried out with various other sulfates which were synthetically obtained. The experimental procedures employed are identical to that in the preceding experiments. The cultured MT-4 cells were infected with HTLV-III and the inhibitory effects of various test substances on the infected cell rate (number of fluorescent cell×100/ total cell, %) were determined at the 6th day.

MT-4 cells = assay: Cytotoxicity, MT-4 cells cultured without virus (Examples 4 and 8); type: cell-based, human; settings: without virus; for Viability: 0 μg/ml gives 87; for Cell number: 0 μg/ml gives 124
Excerpt: The cell:virus ratio was 500:1. […] The infected cells were distinguished from the uninfected cells by an indirect immuno-fluorescence method. Thus, the cultured cells were fixed with cold methanol on a slide glass, reacted with antibody to the HTLV-III-specific antigens, and further with the secondary antibody (having a fluororescent label). […] The cell growth is indicated in number of cells, the viability (%) in number of viable cells ×100/number of total cells, and the infected cell rate (%) in number of fluorescent-positive cells x 100/number of total cells.

[1] = tested on: reverse transcriptase (authentic sample) derived from Avian Myeloblastosis Virus; assay: Inhibition of reverse transcriptase activity (AMV), Examples 1 and 5; type: biochemical; settings: FIGS. 30-33
Description: Test substances were assayed for inhibition against the enzyme activity of reverse transcriptase (authentic sample) derived from Avian Myeloblastosis Virus (abbrev. AMV), a kind of retrovirus. Five microliters of […] (template RNA), 4 μl of (dT)12-18 (primer DNA), and 1 μl of water were mixed with 5 μl of 0.5M Tris-HCl (pH 8.4) including 0.1% triton X-100, 5 μl of […], 5 μl of 20 […], 5 μl of water, and [^3 H]-TTP (tritium labeled thymidine triphosphate). To this mixture, test substances in solutions (final concentrations: 1, 0.1, and 0.01 μg/ml, 5 μl) or buffer solutions (control, 5 μl) at various doses were added. Then, 5 μl (one unit) of the authentic reverse transcriptase derived from AMV was added and the reaction mixture was incubated at 37° C. for 30 minutes. The reaction was stopped by addition of trichloroacetic acid, and after filtering the reaction mixture, the radioactivity of the polymerized (3H-T)n retained on the filter was measured using a liquid scintilation counter. As the test substances, sodium dextran sulfate (molecular weight: 5000), same (molecular weight: 8000), same (molecular weight: 500000), fucoidin, κ-carrageenan, λ-carrageenan, and .iota.-carrageenan were used.
The effects of the test substances on the reverse transcriptase activity of AMV were evaluated by the method described in Example 1.

mice = settings: cited from earlier work
[2] = 10 μg/ml, 6th day, control without test substance 100%
[3] = 100 μg/ml, 6th day, control without test substance 100%
[4] = 10 μg/ml, 6th day, control without test substance 100%, 8640 min
[5] = 100 μg/ml, 6th day, control without test substance 100%, 8640 min
[6] = 1000 μg/ml, 6th day, control without test substance 100%
[7] = 1 μg/ml, listed as Sodium dextran sulfate (molecular weight: 5000, S-content: 13%)
[8] = 10 μg/ml, listed as Sodium dextran sulfate (molecular weight: 5000, S-content: 13%)
[9] = 100 μg/ml, listed as Sodium dextran sulfate (molecular weight: 5000, S-content: 13%)

Row | Compound | anti-AIDS virus activity, in words (HTLV-III) | Infected cell (%) (HTLV-III; [2]) | Infected cell (%) (HTLV-III; [3]) | also measured
1 | O=C[C@H](O)[C@@H](O)[C@H](O)[C@H](O)COS(=O)(=O)O [Glucose-6-sulfate, reference compound] |  |  |  | activity at 10 µg/mL (HTLV-III; Human immunodeficiency virus 1, MT4, 144 h, 10 μg/ml, 6th day, control without test substance 100%): 100%; activity at 100 µg/mL (HTLV-III; Human immunodeficiency virus 1, MT4, 144 h, 100 μg/ml, 6th day, control without test substance 100%): 100%; activity at 1000 µg/mL (HTLV-III; Human immunodeficiency virus 1, MT4, 144 h, 1000 μg/ml, 6th day, control without test substance 100%): 100%
2 | OC[C@H]1O[C@H](OC[C@H]2O[C@H](O[C@]3(CO)O[C@H](CO)[C@@H](O)[C@@H]3O)[C@H](O)[C@@H](O)[C@@H]2O)[C@H](O)[C@@H](O)[C@H]1O [raffinose, reference compound] | None |  |  | 
3 | .iota.-Carrageenan |  | 100% | 31% | Viability (MT-4 cells; 1 μg/ml): 94%; Cell number (MT-4 cells; 1 μg/ml): 135 ×10^4 cells/ml; Viability (MT-4 cells; 10 μg/ml): 93%; Cell number (MT-4 cells; 10 μg/ml): 128 ×10^4 cells/ml; Viability (MT-4 cells; 100 μg/ml): 80%; Cell number (MT-4 cells; 100 μg/ml): 144 ×10^4 cells/ml
4 | Agarose [reference compound] |  | 100% | 100% | 
5 | Alginic acid [reference compound] |  | 100% | 100% | 
6 | Alginic acid sulfate | particularly strong | 7% | 4% | 
7 | Chitin [reference compound] |  | 100% | 100% | 
8 | Chitin sulfate |  | 100% | 81% | 
9 | Chitosan [reference compound] |  | 100% | 100% | 
10 | Chitosan sulfate | particularly strong | 1% | 1% | 
11 | Chondroitin [reference compound] |  | 100% | 100% | 
12 | Chondroitin polysulfate | particularly strong | 3% | 1% | reverse transcriptase inhibitory activity compared with the natural substances [1]: stronger activity
13 | Chondroitin-4-sulfate [reference compound] |  | 100% | 100% | 
14 | Chondroitin-4-sulfate polysulfate | particularly strong | 2% | 1% | 
15 | Chondroitin-6-sulfate [reference compound] |  | 100% | 100% | 
16 | Chondroitin-6-sulfate polysulfate | particularly strong | 2% | 1% | 
17 | Dermatan sulfate [reference compound] |  | 100% | 80% | 
18 | Dextran [Dextran 9,000, reference compound] |  | 100% | 100% | 
19 | Dextran sulfate [Dextran sulfate 3,500] |  |  |  | Infected cell (%) (HTLV-III; [4]): 100%; Infected cell (%) (HTLV-III; [5]): 82%; Infected cell (%) (HTLV-III; [6]): 1%

Row | Compound | anti-AIDS virus activity, in words (HTLV-III) | Infected cell (%) (HTLV-III; [2]) | Infected cell (%) (HTLV-III; [3]) | also measured
20 | Dextran sulfate [Dextran sulfate 5,000] |  |  |  | Infected cell (%) (HTLV-III; [4]): 18%; Infected cell (%) (HTLV-III; [5]): 0%; Viability (MT-4 cells; [7]): 90%; Cell number (MT-4 cells; [7]): 123 ×10^4 cells/ml; Viability (MT-4 cells; [8]): 92%; Cell number (MT-4 cells; [8]): 127 ×10^4 cells/ml; Viability (MT-4 cells; [9]): 93%; Cell number (MT-4 cells; [9]): 121 ×10^4 cells/ml
21 | Dextran sulfate [Dextran sulfate 8,000] |  |  |  | Infected cell (%) (HTLV-III; [4]): 25%; Infected cell (%) (HTLV-III; [5]): 0%
22 | Dextran sulfate [Dextran sulfate 500,000] |  |  |  | Infected cell (%) (HTLV-III; [4]): 20%; Infected cell (%) (HTLV-III; [5]): 0%
23 | Fucoidin |  | 32% | 1% | Viability (MT-4 cells; 1 μg/ml): 92%; Cell number (MT-4 cells; 1 μg/ml): 141 ×10^4 cells/ml; Viability (MT-4 cells; 10 μg/ml): 99%; Cell number (MT-4 cells; 10 μg/ml): 112 ×10^4 cells/ml; Viability (MT-4 cells; 100 μg/ml): 93%; Cell number (MT-4 cells; 100 μg/ml): 71 ×10^4 cells/ml
24 | Glucose-polysulfate [reference compound] |  | 100% | 100% | Infected cell (%) (HTLV-III; [6]): 100%
25 | Heparitin sulfate [reference compound] |  | 100% | 90% | 
26 | Hyaluronic acid [reference compound] |  | 100% | 100% | 
27 | Hyaluronic acid sulfate |  | 100% | 70% | 
28 | Keratan polysulfate |  | 80% | 40% | reverse transcriptase inhibitory activity compared with the natural substances [1]: stronger activity
29 | Keratan sulfate [reference compound] |  | 100% | 80% | 
30 | N-acetylglucosamine polysulfate [reference compound] |  | 100% | 100% | Infected cell (%) (HTLV-III; [6]): 100%
31 | colominic acid [reference compound] | None |  |  | 
32 | dextran sulfate | particularly strong |  |  | 
33 | inulin [reference compound] | None |  |  | 
34 | methylcellulose [reference compound] | None |  |  | 
35 | pectin [reference compound] | None |  |  | 
36 | sodium chondroitin sulfate |  |  |  | acute toxicity (LD50) (mice; intraperitoneally): ≥ 4,000 mg/kg; acute toxicity (LD50) (mice; orally): ≥ 7,500 mg/kg
37 | κ-Carrageenan |  | 95% | 1% | Viability (MT-4 cells; 1 μg/ml): 93%; Cell number (MT-4 cells; 1 μg/ml): 147 ×10^4 cells/ml; Viability (MT-4 cells; 10 μg/ml): 93%; Cell number (MT-4 cells; 10 μg/ml): 149 ×10^4 cells/ml; Viability (MT-4 cells; 100 μg/ml): 92%; Cell number (MT-4 cells; 100 μg/ml): 111 ×10^4 cells/ml
38 | λ-Carrageenan | particularly strong | 3% | 1% | Viability (MT-4 cells; 1 μg/ml): 89%; Cell number (MT-4 cells; 1 μg/ml): 147 ×10^4 cells/ml; Viability (MT-4 cells; 10 μg/ml): 94%; Cell number (MT-4 cells; 10 μg/ml): 203 ×10^4 cells/ml; Viability (MT-4 cells; 100 μg/ml): 94%; Cell number (MT-4 cells; 100 μg/ml): 83 ×10^4 cells/ml
